# Results taken from patent US20250230193A1, “CYCLIC COMPOUND HAVING SELECTIVE KRAS INHIBITORY EFFECT ON HRAS AND NRAS” (CHUGAI SEIYAKU KABUSHIKI KAISHA, priority 2022, published 2025).
# Columns and labels:
# [1] = target: GDP-bound NRAS wild-type protein (Homo sapiens, UniProt P01111); test: Binding to NRAS by surface plasmon resonance (SPR), Single Cycle Kinetics; settings: KD ratio NRAS/KRAS, class symbols
# [2] = target: GDP-bound HRAS wild-type protein (Homo sapiens, UniProt P01112); test: Binding to HRAS by surface plasmon resonance (SPR), Single Cycle Kinetics; settings: KD ratio HRAS/KRAS, class symbols
# Chain of GDP-bound HRAS wild-type protein (P01112 whole entry): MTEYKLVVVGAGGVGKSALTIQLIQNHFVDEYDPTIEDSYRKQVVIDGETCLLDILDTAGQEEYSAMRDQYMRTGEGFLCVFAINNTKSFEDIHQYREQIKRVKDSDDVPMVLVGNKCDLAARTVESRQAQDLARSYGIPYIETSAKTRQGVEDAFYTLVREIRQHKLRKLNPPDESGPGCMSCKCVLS
# Chain of GDP-bound NRAS wild-type protein (P01111 whole entry): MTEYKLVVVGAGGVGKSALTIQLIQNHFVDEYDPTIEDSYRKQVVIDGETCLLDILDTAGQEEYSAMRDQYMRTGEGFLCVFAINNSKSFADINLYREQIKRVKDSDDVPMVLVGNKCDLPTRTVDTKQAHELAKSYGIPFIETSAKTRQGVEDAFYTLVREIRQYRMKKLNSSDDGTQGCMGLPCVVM
SMILES,NRAS/KRAS (ratio of KD value with respect to GDP-bound NRAS wild-type protein to KD value with respect to KRAS) [1],HRAS/KRAS (ratio of KD value with respect to GDP-bound HRAS wild-type protein to KD value with respect to KRAS) [2]
CCO[C@@H]1C[C@H]2C(=O)NC3(CCC3)C(=O)N(C)[C@@H](C3CCCC3)C(=O)N(C)[C@H](C(=O)N(C)CC)CC(=O)N(C)[C@@H](CC(C)C)C(=O)N[C@@H]([C@@H](C)CC)C(=O)N(C)CC(=O)N(C)[C@H]3C/C=C\CCN(C3=O)[C@@H](Cc3ccc(C(F)(F)F)cc3)C(=O)N(C)CC(=O)N[C@@H](CCc3ccc(C(F)(F)F)c(OC)c3)C(=O)N2C1 [PP2846],AA (a compound having 20 or more is denoted as AA),A (a compound having 10 or more and less than 20 is denoted as A)
CCO[C@@H]1C[C@H]2C(=O)NC3(CCC3)C(=O)N(C)[C@@H](C3CCCC3)C(=O)N(C)[C@H](C(=O)N(C)CC)CC(=O)N(C)[C@@H](CC(C)C)C(=O)N[C@@H]([C@@H](C)CC)C(=O)N(C)CC(=O)N(C)[C@H]3C/C=C\CCN(C3=O)[C@@H](Cc3ccc(C(F)(F)F)cc3)C(=O)N(C)CC(=O)N[C@@H](CCc3ccc(C(F)(F)F)c(Cl)c3)C(=O)N2C1 [PP2847],A (a compound having 10 or more and less than 20 is denoted as A),A (a compound having 10 or more and less than 20 is denoted as A)
CCC[C@H]1C(=O)N[C@@H]([C@@H](C)CC)C(=O)N(C)CC(=O)N(C)[C@H]2C/C=C\CCN(C2=O)[C@@H](Cc2ccc(C(F)(F)F)cc2)C(=O)N(C)CC(=O)N[C@@H](CCc2ccc(CC)c(Cl)c2)C(=O)N2C[C@H](OCC)C[C@H]2C(=O)NC2(CC(C)(C)C2)C(=O)N(C)[C@@H](C2CCCC2)C(=O)N(C)[C@H](C(=O)N(C)C)CC(=O)N1C [PP2848],A (a compound having 10 or more and less than 20 is denoted as A),A (a compound having 10 or more and less than 20 is denoted as A)
CCC[C@H]1C(=O)N[C@@H]([C@@H](C)CC)C(=O)N(C)CC(=O)N(C)[C@H]2C/C=C\CCN(C2=O)[C@@H](Cc2ccc(C(F)(F)F)cc2)C(=O)N(C)CC(=O)N[C@@H](CCc2cc(F)c3c(c2)CCC3)C(=O)N2C[C@H](OCC)C[C@H]2C(=O)NC2(CC(C)(C)C2)C(=O)N(C)[C@@H](C2CCCC2)C(=O)N(C)[C@H](C(=O)N(C)C)CC(=O)N1C [PP2849],A (a compound having 10 or more and less than 20 is denoted as A),A (a compound having 10 or more and less than 20 is denoted as A)
CCC[C@H]1C(=O)N[C@@H]([C@@H](C)CC)C(=O)N(C2CC2)CC(=O)N(C)[C@H]2C/C=C\CCN(C2=O)[C@@H](Cc2ccc(C)cc2)C(=O)N(C)CC(=O)N[C@@H](CCc2ccc(C(F)(F)F)c(CC)c2)C(=O)N2C[C@H](OCC)C[C@H]2C(=O)NC2(CC(C)(C)C2)C(=O)N(C)[C@@H](C2CCCC2)C(=O)N(C)[C@H](C(=O)N(C)C)CC(=O)N1C [PP2870],A (a compound having 10 or more and less than 20 is denoted as A),A (a compound having 10 or more and less than 20 is denoted as A)
CCC[C@H]1C(=O)N[C@@H]([C@@H](C)CC)C(=O)N(C)CC(=O)N(C)[C@H]2C/C=C\CCN(C2=O)[C@@H](Cc2ccc(C(F)(F)F)cc2)C(=O)N(C)CC(=O)N[C@@H](CCc2cc(Cl)c3sccc3c2)C(=O)N2C[C@H](OCC)C[C@H]2C(=O)NC2(CC(C)(C)C2)C(=O)N(C)[C@@H](C(CC)CC)C(=O)N(C)[C@H](C(=O)N(C)C)CC(=O)N1C [PP2888],AA (a compound having 20 or more is denoted as AA),A (a compound having 10 or more and less than 20 is denoted as A)
CCC[C@H]1C(=O)N[C@@H]([C@@H](C)CC)C(=O)N(C)CC(=O)N(C)[C@H]2C/C=C\CCN(C2=O)[C@@H](Cc2ccc(C(F)(F)F)cc2)C(=O)N(C)CC(=O)N[C@@H](CCc2ccc3sc(C)c(C)c3c2)C(=O)N2C[C@H](OCC)C[C@H]2C(=O)NC2(CC(C)(C)C2)C(=O)N(C)[C@@H](C2CCCC2)C(=O)N(C)[C@H](C(=O)N(C)C)CC(=O)N1C [PP2889],A (a compound having 10 or more and less than 20 is denoted as A),A (a compound having 10 or more and less than 20 is denoted as A)
CCC[C@H]1C(=O)N[C@@H]([C@@H](C)CC)C(=O)N(C)CC(=O)N(C)[C@H]2C/C=C\CCN(C2=O)[C@@H](Cc2ccc(C)cc2)C(=O)N(C)CC(=O)N[C@@H](CCc2cc(Cl)c3sccc3c2)C(=O)N2C[C@H](OCC)C[C@H]2C(=O)NC2(CC(C)(C)C2)C(=O)N(C)[C@@H](C(CC)CC)C(=O)N(C)[C@H](C(=O)N(C)C)CC(=O)N1C [PP2890],AA (a compound having 20 or more is denoted as AA),A (a compound having 10 or more and less than 20 is denoted as A)
CCC[C@H]1C(=O)N[C@@H]([C@@H](C)CC)C(=O)N(C)CC(=O)N(C)[C@H]2C/C=C\CCN(C2=O)[C@@H](Cc2ccc(C)cc2)C(=O)N(C)CC(=O)N[C@@H](CCc2ccc3sc(C)c(C)c3c2)C(=O)N2C[C@H](OCC)C[C@H]2C(=O)NC2(CC(C)(C)C2)C(=O)N(C)[C@@H](C2CCCC2)C(=O)N(C)[C@H](C(=O)N(C)C)CC(=O)N1C [PP2891],A (a compound having 10 or more and less than 20 is denoted as A),B (a compound having 3 or more and less than 10 is denoted as B)
CCC[C@H]1C(=O)N[C@@H]([C@@H](C)CC)C(=O)N(C)CC(=O)N(C)[C@H]2C/C=C\CCN(C2=O)[C@@H](Cc2ccc(C(F)(F)F)cc2)C(=O)N(C)CC(=O)N[C@@H](CCc2ccc3sc(F)c(C)c3c2)C(=O)N2C[C@H](OCC)C[C@H]2C(=O)NC2(CC(C)(C)C2)C(=O)N(C)[C@@H](C(CC)CC)C(=O)N(C)[C@H](C(=O)N(C)C)CC(=O)N1C [PP2892],A (a compound having 10 or more and less than 20 is denoted as A),A (a compound having 10 or more and less than 20 is denoted as A)
CCC[C@H]1C(=O)N[C@@H]([C@@H](C)CC)C(=O)N(C)CC(=O)N(C)[C@H]2C/C=C\CCN(C2=O)[C@@H](Cc2ccc(C(F)(F)F)cc2)C(=O)N(C)CC(=O)N[C@@H](CCc2ccc3c(C)c(C)n(C)c3c2)C(=O)N2C[C@H](OCC)C[C@H]2C(=O)NC2(CC(C)(C)C2)C(=O)N(C)[C@@H](C2CCCC2)C(=O)N(C)[C@H](C(=O)N(C)C)CC(=O)N1C [PP2893],A (a compound having 10 or more and less than 20 is denoted as A),A (a compound having 10 or more and less than 20 is denoted as A)
CCC[C@H]1C(=O)N[C@@H]([C@@H](C)CC)C(=O)N(C)CC(=O)N(C)[C@H]2C/C=C\CCN(C2=O)[C@@H](Cc2ccc(C)cc2)C(=O)N(C)CC(=O)N[C@@H](CCc2ccc3sc(F)c(C)c3c2)C(=O)N2C[C@H](OCC)C[C@H]2C(=O)NC2(CC(C)(C)C2)C(=O)N(C)[C@@H](C(CC)CC)C(=O)N(C)[C@H](C(=O)N(C)C)CC(=O)N1C [PP2894],AA (a compound having 20 or more is denoted as AA),A (a compound having 10 or more and less than 20 is denoted as A)
CCC[C@H]1C(=O)N[C@@H]([C@@H](C)CC)C(=O)N(C)CC(=O)N(C)[C@H]2C/C=C\CCN(C2=O)[C@@H](Cc2ccc(C)cc2)C(=O)N(C)CC(=O)N[C@@H](CCc2ccc3c(C)c(C)n(C)c3c2)C(=O)N2C[C@H](OCC)C[C@H]2C(=O)NC2(CC(C)(C)C2)C(=O)N(C)[C@@H](C2CCCC2)C(=O)N(C)[C@H](C(=O)N(C)C)CC(=O)N1C [PP2895],A (a compound having 10 or more and less than 20 is denoted as A),A (a compound having 10 or more and less than 20 is denoted as A)
CCC[C@H]1C(=O)N[C@@H]([C@@H](C)CC)C(=O)N(C)CC(=O)N(C)[C@H]2C/C=C\CCN(C2=O)[C@@H](Cc2ccc(C(F)(F)F)cc2)C(=O)N(C)CC(=O)N[C@@H](CCc2ccc3c(C)cn(C)c3c2)C(=O)N2C[C@H](OCC)C[C@H]2C(=O)NC2(CC(C)(C)C2)C(=O)N(C)[C@@H](C2CCCC2)C(=O)N(C)[C@H](C(=O)N(C)C)CC(=O)N1C [PP2897],A (a compound having 10 or more and less than 20 is denoted as A),B (a compound having 3 or more and less than 10 is denoted as B)
CCC[C@H]1C(=O)N[C@@H]([C@@H](C)CC)C(=O)N(C)CC(=O)N(C)[C@H]2C/C=C\CCN(C2=O)[C@@H](Cc2ccc(C)cc2)C(=O)N(C)CC(=O)N[C@@H](CCc2cc(Cl)c3c(ccn3C)c2)C(=O)N2C[C@H](OCC)C[C@H]2C(=O)NC2(CC(C)(C)C2)C(=O)N(C)[C@@H](C(CC)CC)C(=O)N(C)[C@H](C(=O)N(C)C)CC(=O)N1C [PP2898],A (a compound having 10 or more and less than 20 is denoted as A),A (a compound having 10 or more and less than 20 is denoted as A)
CCC[C@H]1C(=O)N[C@@H]([C@@H](C)CC)C(=O)N(C)CC(=O)N(C)[C@H]2C/C=C\CCN(C2=O)[C@@H](Cc2ccc(C)cc2)C(=O)N(C)CC(=O)N[C@@H](CCc2ccc3c(C)cn(C)c3c2)C(=O)N2C[C@H](OCC)C[C@H]2C(=O)NC2(CC(C)(C)C2)C(=O)N(C)[C@@H](C2CCCC2)C(=O)N(C)[C@H](C(=O)N(C)C)CC(=O)N1C [PP2899],A (a compound having 10 or more and less than 20 is denoted as A),B (a compound having 3 or more and less than 10 is denoted as B)
